Results from patent publication US11883398B2, “Dipeptidylpeptidase 4 inhibition enhances lymphocyte trafficking, improving both naturally occurring tumor immunity and immunotherapy” (INSTITUT PASTEUR, priority 2015, dated 2024).

Columns and labels:
[1] = test system: DPP8/9 over-expressing cells; conditions: cited from earlier work; for selectivity for DPP4 over DPP8 and 9: Huan et al. 2015; for selectivity towards DPP4: Madar et al. 2006, Gilibili et al. 2015
DASH proteases = conditions: WO2013/078059; Narra et al. 2007; cited from earlier work
DPP9 = DPP9 (Homo sapiens, UniProt Q86TI2); conditions: Verspohl 2012; Huan et al. 2015; cited from earlier work
DPP8 = DPP8 (Homo sapiens, UniProt Q6V1X1); conditions: Verspohl 2012; Huan et al. 2015; cited from earlier work
mDPP4 = target: T1, mDPP4 (Mus musculus, UniProt P28843); experiment: DPP4 processing of recombinant chemokines (SELDI-TOF mass spectrometry); type: biochemical; conditions: 10 nM mDPP4, 30 min at 37° C.
T1 construct: purchased Peprotech
Description: Recombinant mDPP4, mCXCL10, mCXCL9, mCXCL11, mCCL2, mCCL3, mCCL4, mCCL5, mCXCL12 and mCCL22 were purchased from Peprotech. For surface-enhanced laser desorption/ionization-[…] (SELDI-TOF) mass spectrometry, chemokines were incubated in the presence or absence of 10 nM of mDPP4 for 30 min at 37° C. The digested product was applied onto an H4 protein chip, following the manufacturer's instructions and analyzed using the PROTEINCHIP™ SYSTEMS SERIES 4000 (Ciphergen). Data were analyzed using CIPHERGENEXPRESS Software.

B16F10 tumors = experiment: Flow cytometry of leukocytes infiltrating B16F10 tumors; type: in vivo, mouse; conditions: day 7 B16F10 tumors, 12-14 h after injection
Description: B16F10 and M04 (Ovalbumin-expressing B16F10 cells, gift from C. Reis e Sousa) tumor cells were cultured in DMEM (Gibco) supplemented with 10% FCS (PAA), 0.1 mM non-essential amino acids, 1 mM sodium pyruvate, 10 mM Hepes, 70 μM beta-mercaptoethanol and 23 μg/ml gentamycin (all from Gibco). CT26 colon carcinoma cells were cultured in RPMI (Gibco) supplemented as described for DMEM. Cells for injections were passaged 1-2 times after thawing, before use. WT and genetically modified mice were subcutaneously injected with 2×10^5 B16 or 5×10^5 CT26 cells in the shaved right flank. When indicated, mice received an intra-tumoral injection of 1 μg of recombinant mCXCL10, 5 μg CpG-A in DOPTAP or vehicle control. For blocking of chemokine and chemokine receptors, WT mice were intraperitoneally injected with 100 μg of hamster a-mCXCR3 (clone CXCR3-173, BioLegend), 100 μg of hamster α-mCCR5 (clone HM-CCR5, BioLegend), 50 μg of rat anti-mCXCL10 (clone 134013, R&D systems) and 20 μg of rat-α-mCXCR4 (clone 2B11/CXCR4, BD Biosciences) or with respective isotype antibodies (hamster IgG (clone HTK888, BioLegend, used as control for mCXCR3 and mCCR5 blockage); rat IgG2a (clone 54447, R&D systems, used as control for mCXCL10 blockade) and rat IgG2b (clone A95-1, BD Biosciences, used as control for mCXCR4 blockade). Intraperitoneal injection was done one day before and 4, 8 and 12 days after tumor cell injection. For CXCL10 neutralization, antibodies were injected on day 2, 5, 8 and 11 after tumor cell injection. For immunotherapy protocols, mice were intraperitoneally injected with 100 μg of mouse α-CTLA-4 (clone 9D9, Bioxcell), 200 μg of PD1 (clone RMP1-14, Bioxcell), a combination of 100 μg of α-CTLA-4+200 μg of a-PD1 or control isotypes (100 μg […] and 200 μg rat IgG2a (clone 2A3), both from Bioxcell) on day 3, 6 and 9 after tumor cell implantation. For adoptive cell transfer experiments, Pmel-1 Thy-1.1^+Thy-1.1^+, Cxcr3^−/− Thy-1.1^+Thy-1.2^+ Pmel-1 or OT1 splenocytes were activated ex-vivo, by incubation with 1 nM of human gp100 (for Pmel-1 cells) or […] (for OT1 cells) peptides for 1h at room temperature with agitation. Splenocytes were then washed and resuspended in R10 supplemented with 30U/mL of recombinant human IL-2. CD8^+ T cells were expanded for 6-7 days before used. For analysis of tumor infiltrates, activated Cxcr3^+/+ Thy-1.1^+Thy-1.1^+ and Cxcr3^−/− Thy-1.1^+Thy-1.2^+ transgenic Pmel-1 CD8^+ T cells were mixed in a 1:1 ratio (total 1×10^6 cells) and injected intravenously into gender matched tumor-bearing mice (3 days after tumor cell injection). For analysis of tumor growth, activated OT1 cells were injected intravenously (1×10^5 cells per mouse) into gender matched tumor-bearing mice, 3 days after tumor cell injection. Tumor height and width were measured with a caliper and tumor volume was calculated (Elliptical volume=width^2×height×0.523). The model of metastatic melanoma was achieved by intravenous injection of 2×10^5 B16 tumor cells. 15 days after tumor cell injection, lungs were dissected, placed in Fekete's solution and metastatic foci were counted. Lungs with more than 100 metastatic nodules were defined as 100.
Fluorochrome-conjugated anti-mouse CD3 (clone145-2C11), CD8 (clone 53-6.7), CD4 (clone RM4-5), NK1.1 (clone PK136), CD49b (clone DX5), CD25 (clone PC61), B220 (clone RA3-6B2), Ly6G (clone 1A8), Ly6C (clone AL-21), CD11 b (clone M1/70) Siglec-F (clone E50-2440), MHCII IA-IE (clone M5/114.15.2), CD45.2 (clones 56-0454-82 and 109830), Thy-1.1 (clone HIS51), Thy-1.2 (clone 53-2.1), DPP4 (clone H194-112) and CXCR3 (clone CXCR3-173) were from eBiosciences and BD Biosciences. Fluorochrome conjugated anti-F4/80 (clone CI:A3-1) was from AbDserotec. For exclusion of dead cells, Live/Dead fixable Aqua reagent (Invitrogen) was used. For all staining protocols, cell suspensions were incubated with mouse CD16/CD32 Fc Blocking antibodies (BD Biosciences) prior to antibody. […]

CXCR3-expressing T cells = experiment: Model of trafficking into the peritoneal cavity; type: in vivo, mouse; conditions: 1 μg chemokine intraperitoneally
Description: WT and Dpp4^−/− mice were intraperitoneally injected with PBS or 1 μg of mCXCL10, mCXCL9 or mCCL5 (all from Peprotech). At the indicated time points, mice were sacrificed and peritoneal cells were collected in 10 mL of PBS. For thioglycollate induced peritonitis mice were intraperitoneally injected with thioglycollate 3% weight/volume, 24 hours before collection of peritoneal cells.
Fluorochrome-conjugated anti-mouse CD3 (clone145-2C11), CD8 (clone 53-6.7), CD4 (clone RM4-5), NK1.1 (clone PK136), CD49b (clone DX5), CD25 (clone PC61), B220 (clone RA3-6B2), Ly6G (clone 1A8), Ly6C (clone AL-21), CD11 b (clone M1/70) Siglec-F (clone E50-2440), MHCII IA-IE (clone M5/114.15.2), CD45.2 (clones 56-0454-82 and 109830), Thy-1.1 (clone HIS51), Thy-1.2 (clone 53-2.1), DPP4 (clone H194-112) and CXCR3 (clone CXCR3-173) were from eBiosciences and BD Biosciences. Fluorochrome conjugated anti-F4/80 (clone CI:A3-1) was from AbDserotec. For exclusion of dead cells, Live/Dead fixable Aqua reagent (Invitrogen) was used. For all staining protocols, cell suspensions were incubated with mouse CD16/CD32 Fc Blocking antibodies (BD Biosciences) prior to antibody. For analysis of peritoneal cavity infiltrates, cells were washed and incubated with a cocktail of fluorochrome-conjugated antibodies. For analysis of tumor infiltrates, B16F10 tumors were collected at the indicated time points and digested in PBS supplemented with 2.7 mg/ml of Collagenase (Roche) and 23U/ml of Deoxyribonuclease I (Invitrogen) for 30 min, 37° C. Digestion was terminated by adding PBS supplemented with 2% FCS and 5 mM EDTA (Gibco). Tumor cell suspensions were obtained after filtration over a 70 μm cell strainer. For determination of cell numbers, the […] COUNTING BEADS reagent (Invitrogen) was used. Flow cytometry was performed using a BD LSRFORTESSA or a BD CANTO cytometer, with DIVA software. Computer analysis was done with FLOWJO (Treestar).

T1 sequence (P28843 whole entry): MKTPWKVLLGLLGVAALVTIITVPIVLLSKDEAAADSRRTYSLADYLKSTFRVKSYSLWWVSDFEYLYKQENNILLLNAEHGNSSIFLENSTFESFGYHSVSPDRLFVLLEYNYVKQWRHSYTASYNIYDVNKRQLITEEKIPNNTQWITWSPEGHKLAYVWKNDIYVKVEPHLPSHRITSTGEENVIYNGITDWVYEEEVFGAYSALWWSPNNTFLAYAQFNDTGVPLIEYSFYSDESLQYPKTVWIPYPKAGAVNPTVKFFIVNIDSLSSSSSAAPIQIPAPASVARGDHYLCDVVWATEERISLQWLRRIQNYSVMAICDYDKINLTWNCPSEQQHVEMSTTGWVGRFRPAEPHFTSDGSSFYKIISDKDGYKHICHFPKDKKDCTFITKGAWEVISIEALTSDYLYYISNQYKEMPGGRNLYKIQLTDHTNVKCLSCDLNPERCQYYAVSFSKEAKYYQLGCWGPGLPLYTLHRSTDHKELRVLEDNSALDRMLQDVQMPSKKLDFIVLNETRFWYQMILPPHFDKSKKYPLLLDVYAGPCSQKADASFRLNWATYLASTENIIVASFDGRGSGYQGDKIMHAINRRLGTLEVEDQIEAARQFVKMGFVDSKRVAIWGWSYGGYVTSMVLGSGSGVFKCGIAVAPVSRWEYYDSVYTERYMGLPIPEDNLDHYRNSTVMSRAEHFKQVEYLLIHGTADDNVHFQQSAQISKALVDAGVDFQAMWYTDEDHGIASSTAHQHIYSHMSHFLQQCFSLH
DPP8, sequence (Q6V1X1 whole entry, species assumed): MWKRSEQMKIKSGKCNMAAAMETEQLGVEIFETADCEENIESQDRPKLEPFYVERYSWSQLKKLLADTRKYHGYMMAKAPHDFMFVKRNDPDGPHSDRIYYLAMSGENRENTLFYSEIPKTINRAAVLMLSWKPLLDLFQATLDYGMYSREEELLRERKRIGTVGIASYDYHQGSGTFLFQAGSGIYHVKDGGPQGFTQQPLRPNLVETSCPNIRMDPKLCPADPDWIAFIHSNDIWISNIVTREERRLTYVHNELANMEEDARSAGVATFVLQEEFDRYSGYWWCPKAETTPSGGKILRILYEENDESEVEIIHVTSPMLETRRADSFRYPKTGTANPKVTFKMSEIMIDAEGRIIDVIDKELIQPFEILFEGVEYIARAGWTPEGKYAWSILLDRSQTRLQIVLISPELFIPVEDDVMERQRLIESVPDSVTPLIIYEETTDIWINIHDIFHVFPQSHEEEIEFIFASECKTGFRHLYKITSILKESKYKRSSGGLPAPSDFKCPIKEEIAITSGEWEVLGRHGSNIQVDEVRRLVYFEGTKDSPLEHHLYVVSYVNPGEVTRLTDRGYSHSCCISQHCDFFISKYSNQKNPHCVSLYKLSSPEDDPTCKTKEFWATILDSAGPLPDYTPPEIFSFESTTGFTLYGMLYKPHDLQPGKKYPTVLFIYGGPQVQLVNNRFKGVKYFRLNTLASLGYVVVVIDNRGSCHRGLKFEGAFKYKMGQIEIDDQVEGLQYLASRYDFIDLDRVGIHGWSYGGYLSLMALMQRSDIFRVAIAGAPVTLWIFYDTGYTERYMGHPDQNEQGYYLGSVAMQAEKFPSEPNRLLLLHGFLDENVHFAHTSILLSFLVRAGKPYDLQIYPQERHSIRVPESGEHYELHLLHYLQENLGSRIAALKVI
DPP9, sequence (Q86TI2 whole entry, species assumed): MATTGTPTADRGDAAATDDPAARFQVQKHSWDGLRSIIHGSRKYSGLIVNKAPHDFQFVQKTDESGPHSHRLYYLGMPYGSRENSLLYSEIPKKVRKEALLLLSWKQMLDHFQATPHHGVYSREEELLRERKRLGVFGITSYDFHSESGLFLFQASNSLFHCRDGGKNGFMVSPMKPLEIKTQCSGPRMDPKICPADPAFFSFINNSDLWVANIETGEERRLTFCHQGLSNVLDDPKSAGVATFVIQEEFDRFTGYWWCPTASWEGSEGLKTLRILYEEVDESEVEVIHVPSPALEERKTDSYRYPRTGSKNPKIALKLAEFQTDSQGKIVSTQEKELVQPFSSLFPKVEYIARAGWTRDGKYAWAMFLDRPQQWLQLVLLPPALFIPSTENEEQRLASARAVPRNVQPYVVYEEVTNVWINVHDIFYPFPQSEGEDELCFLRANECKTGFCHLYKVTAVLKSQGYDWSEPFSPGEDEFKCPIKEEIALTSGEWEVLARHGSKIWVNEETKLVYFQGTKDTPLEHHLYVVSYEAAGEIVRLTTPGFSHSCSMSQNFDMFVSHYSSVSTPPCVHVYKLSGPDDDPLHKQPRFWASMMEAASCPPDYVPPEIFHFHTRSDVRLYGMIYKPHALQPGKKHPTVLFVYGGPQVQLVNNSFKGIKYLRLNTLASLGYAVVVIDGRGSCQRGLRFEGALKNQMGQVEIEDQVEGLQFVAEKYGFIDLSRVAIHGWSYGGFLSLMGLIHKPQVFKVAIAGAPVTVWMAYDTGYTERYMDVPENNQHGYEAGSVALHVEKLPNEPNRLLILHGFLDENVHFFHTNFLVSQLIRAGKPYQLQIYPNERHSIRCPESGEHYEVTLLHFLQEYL

C#C[C@H]1CC[C@@H](C#N)N1C(=O)CNC1(C)CCN(c2cc(C(=O)O)ccn2)CC1 [ABT-279]
selectivity for DPP4 over DPP8 and 9 [1]: highly-selective inhibitors of DPP4 | selectivity towards DPP4 [1]: highly selective towards DPP4

N[C@H]1CC(C(=O)N2CCn3c(nnc3C(F)(F)F)C2)=CC[C@@H]1c1cc(F)c(F)cc1F [ABT-341]
selectivity for DPP4 over DPP8 and 9 [1]: highly-selective inhibitors of DPP4 | selectivity towards DPP4 [1]: highly selective towards DPP4

CC(C)(C)[C@H](N)C(=O)N1CCC[C@H]1B(O)O [ARI-4175]
inhibition of DASH proteases (DASH proteases): inhibiting a multitude of DASH proteases

CC(C)[C@H](N)C(=O)N1CCC[C@H]1B(O)O [Val-boroPro]
inhibition of DASH proteases (DASH proteases): inhibiting a multitude of DASH proteases

Cn1c(=O)cc(N2CCC[C@@H](N)C2)n(Cc2ccccc2C#N)c1=O [alogliptin]
effect on DPP9 activity (DPP9): no effect | effect on DPP8 activity (DPP8): no effect

COc1cc2c(cc1OC)[C@@H]1C[C@H](N)[C@@H](N3C[C@@H](CF)CC3=O)CN1CC2 [carmegliptin]
selectivity for DPP4 over DPP8 and 9 [1]: highly-selective inhibitors of DPP4 | selectivity towards DPP4 [1]: highly selective towards DPP4

N#C[C@@H]1C[C@H](F)CN1C(=O)[C@@H](N)C(c1ccc(F)cc1)c1ccc(F)cc1 [denagliptin]
selectivity for DPP4 over DPP8 and 9 [1]: highly-selective inhibitors of DPP4 | selectivity towards DPP4 [1]: highly selective towards DPP4

mCCL2: recombinant mouse chemokine (Peprotech)
susceptibility to DPP4 N-terminal truncation (mDPP4): in vitro cleavage

mCXCL12: recombinant mouse chemokine (Peprotech)
susceptibility to DPP4 N-terminal truncation (mDPP4): in vitro cleavage

B1: mCXCL10: recombinant full length mouse CXCL10 (Peprotech) (protein, UniProt P17515 22-98, looked up)
C-X-C motif chemokine 10: IPLARTVRCNCIHIDDGPVRMRAIGKLEIIPASLSCPRVEIIATMKKNDEQRCLNPESKTIKNLMKAFSQKRSKRAP
lymphocyte recruitment into the tumor parenchyma after intratumoral mCXCL10 (B16F10 tumors): no increase in lymphocyte migration | infiltration of CXCR3-expressing T cells into the peritoneal cavity in control mice (CXCR3-expressing T cells; control chow): failed to induce significant infiltration of CXCR3-expressing T cells | susceptibility to DPP4 N-terminal truncation (mDPP4): sensitive to DPP4 N-terminal truncation

B2: mCCL4: recombinant mouse chemokine (Peprotech) (protein, UniProt P14097 24-92, looked up)
C-C motif chemokine 4: APMGSDPPTSCCFSYTSRQLHRSFVMDYYETSSLCSKPAVVFLTKRGRQICANPSEPWVTEYMSDLELN
susceptibility to DPP4 N-terminal truncation (mDPP4): in vitro cleavage

B3: mCCL3: recombinant mouse chemokine (Peprotech) (protein, UniProt P10855 24-92, looked up)
C-C motif chemokine 3: APYGADTPTACCFSYSRKIPRQFIVDYFETSSLCSQPGVIFLTKRNRQICADSKETWVQEYITDLELNA
susceptibility to DPP4 N-terminal truncation (mDPP4): in vitro cleavage

B4: mCXCL9: recombinant mouse chemokine (Peprotech) (protein, UniProt P18340 22-126, looked up)
C-X-C motif chemokine 9: TLVIRNARCSCISTSRGTIHYKSLKDLKQFAPSPNCNKTEIIATLKNGDQTCLDPDSANVKKLMKEWEKKISQKKKQKRGKKHQKNMKNRKPKTPQSRRRSRKTT
chemokine-induced leukocyte migration into the peritoneal cavity (CXCR3-expressing T cells; WT and Dpp4-/- mice, 6 h): migration of NK cells into the peritoneal cavity | susceptibility to DPP4 N-terminal truncation (mDPP4): insensitive to DPP4-mediated truncation

B5: mCCL22: recombinant mouse chemokine (Peprotech) (protein, UniProt O88430 25-92, looked up)
C-C motif chemokine 22: GPYGANVEDSICCQDYIRHPLPSRLVKEFFWTSKSCRKPGVVLITVKNRDICADPRQVWVKKLLHKLS
susceptibility to DPP4 N-terminal truncation (mDPP4): in vitro cleavage
